Data from patent publication US20060111342A1, “Insecticidal tricyclic derivatives” (priority 2002, published 2006).

tested on: cotton aphid (Aphis gossypii); test: Cotton aphid test in the same manner, more definitive percent mortality at selected rates and exposure times (Table 3); format: in vivo; conditions: 100 ppm; 72 hours exposure
Method: The compounds of formula I useful in the present invention were tested for insecticidal activity by observing mortality in a population of cotton aphid (Aphis gossypii) on treated cotton plants caused by a test compound, when compared to like populations of cotton aphid on untreated plants. These tests were conducted in the following manner:
For each rate of application of test compound, two seven-to-ten days old cotton seedlings (Gossypium hirsutium) grown in 7.6 cm diameter pots were selected for the test. Each test plant was infested with about 120 adult cotton aphids by placing onto each test plant cuttings of leaves from cotton plants grown in a cotton aphid colony. Once infested, the test plants were maintained for up to about 12 hours to allow complete translocation of the aphids onto the test plant. A solution comprising 1000 part per million (ppm) of each test compound was prepared by dissolving 10 milligrams of the test compound in 1 mL of acetone. Each solution was then diluted with 9 mL of a solution of 0.03 mL of polyoxyethylene(10) isooctylphenyl ether in 100 mL of water. About 2.5 mL of solution of each test compound was needed to spray each replicate of test plant (5 mL total for each test compound). If needed, the solution of 1000 ppm of test compound was serially diluted with a solution of 10% acetone and 300 ppm of polyoxyethylene(10) isooctylphenyl ether in water to provide solutions of each test compound for lower rates of application, for example, 300 ppm, 100 ppm, 30 ppm, or 10 ppm. Each replicate of test plant was sprayed with the solutions of test compound until run-off on both the upper and lower surfaces of the leaves. All the test plants were sprayed using a DeVilbus Atomizer Model 152 (Sunrise Medical, Carlsbad, Calif.) at a pressure of about 0.63-0.74 kilogram per square centimeter from a distance of about 30.5 centimeters from the test plants. For comparison purposes, a solution of a standard, such as amitraz or demethylchlordimeform (DCDM), prepared in a manner analogous to that set forth above, as well as a solution of 10% acetone and 300 ppm of polyoxyethylene(10) isooctylphenyl ether in water containing no test compound were also sprayed onto test plants. Upon completion of spraying the solutions of test compound, the solution of standard, and the solution containing no test compound, the plants were allowed to dry. […] After this time, each plant was assessed for percent mortality caused by the test compound when compared to the population of aphids that was infested onto the test plants prior to treatment with test compound. […] If there was 75% mortality or greater of the cotton aphid, a test compound was designated as being more insecticidally active (A).
In a test conducted in the same manner as set forth above, certain compounds of formula I were tested to determine a more definitive percent mortality of cotton aphid.

Compound	Percent Mortality of Cotton Aphid on Cotton Plants
CN1CCC(=C2c3ccccc3Oc3ccc(F)cc32)CC1 [Compound 9]	26%
CCc1ccc2c(c1)C(=C1CCN(C)CC1)c1ccccc1O2 [Compound 12]	26%
CCOC(=O)CCN1CCC(=C2c3ccccc3Oc3ccccc32)CC1 [Compound 20]	37%
CN1CCC(=C2c3ccccc3COc3ccccc32)CC1.Cl [Compound 26]	84%
CN1CCN(C2Cc3cc(Cl)ccc3Sc3cc(Cl)ccc32)CC1 (stereo not shown) [Compound 92]	48%
CN1CCN(C2Cc3ccccc3Sc3c(F)ccc(F)c32)CC1 (stereo not shown) [Compound 97]	65%
COc1ccc2c(c1)Sc1ccccc1CC2N1CCN(C)CC1 (stereo not shown) [Compound 101]	60%
COc1cccc2c1Sc1ccccc1CC2N1CCN(C)CC1 (stereo not shown) [Compound 102]	33%
Cc1cc2c(cc1F)Sc1ccccc1CC2N1CCN(C)CC1 (stereo not shown) [Compound 111]	94%
CN1CCN(C2Cc3ccccc3Sc3cccc(C4CC4)c32)CC1 (stereo not shown) [Compound 112]	92%
CN1CCN(C2Cc3ccccc3Sc3ccc(C4CCCC4)cc32)CC1 (stereo not shown) [Compound 113]	78%
CC(=O)c1ccc2c(c1)C(N1CCN(C)CC1)Cc1ccccc1S2 (stereo not shown) [Compound 115]	93%
CN1CCN(C2Cc3cc(F)ccc3Sc3ccccc32)CC1 (stereo not shown) [Compound 118]	85%
CN1CCN(C2Cc3ccc(F)cc3Sc3ccccc32)CC1 (stereo not shown) [Compound 119]	85%
CSc1ccc2c(c1)C(N1CCN(C)CC1)Cc1cc(F)ccc1S2 (stereo not shown) [Compound 122]	88%
CSc1ccc2c(c1)C(N1CCN(C)CC1)Cc1ccc(F)cc1S2 (stereo not shown) [Compound 123]	96%
CCSc1ccc2c(c1)C(N1CCN(C)CC1)Cc1ccc(F)cc1S2 (stereo not shown) [Compound 124]	95%
CN1CCN(C2Cc3ccc(F)cc3Sc3ccc(C(F)(F)F)cc32)CC1.O=C(O)/C=C\C(=O)O.O=C(O)/C=C\C(=O)O (stereo not shown) [Compound 125]	90%
CC(C)c1ccc2c(c1)C(N1CCN(C)CC1)Cc1ccc(F)cc1S2.O=C(O)/C=C\C(=O)O (stereo not shown) [Compound 128]	95%

same assay, conditions: 100 ppm; 96 hours exposure

Compound	Percent Mortality of Cotton Aphid on Cotton Plants
CC(C)N1CCC(=C2c3ccccc3Sc3ccccc32)CC1 [Compound 3]	80%
CN1CCC(=C2c3ccccc3Oc3c(F)cccc32)CC1 [Compound 11]	42%
CN1CCC(=C2c3ccccc3Oc3ccc(C(F)(F)F)cc32)CC1 [Compound 15]	28%

same assay, conditions: 100 ppm; 168 hours exposure

Compound	Percent Mortality of Cotton Aphid on Cotton Plants
CN1CCN(C2Cc3ccccc3Oc3ccc(Cl)cc32)CC1 (stereo not shown) [Compound 64]	74%
CN1CCN(C2Cc3ccccc3Oc3ccc(Br)cc32)CC1 (stereo not shown) [Compound 65]	100%
CN1CCN(C2Cc3ccccc3Oc3ccc(F)cc32)CC1 (stereo not shown) [Compound 66]	61%
CN1CCN(C2Cc3ccccc3Oc3ccc(I)cc32)CC1 (stereo not shown) [Compound 67]	75%
CN1CCN(C2Cc3ccccc3Oc3ccc(C(F)(F)F)cc32)CC1 (stereo not shown) [Compound 69]	69%
CSc1ccc2c(c1)C(N1CCN(C)CC1)Cc1ccccc1O2 (stereo not shown) [Compound 70]	57%
CN1CCN(C2Cc3ccccc3Oc3ccc(OC(F)(F)F)cc32)CC1 (stereo not shown) [Compound 71]	100%
C[N+]1([O-])CCN(C2Cc3ccccc3Oc3ccc(OC(F)(F)F)cc32)CC1 (stereo not shown) [Compound 72]	100%
CN1CCN(C2Cc3ccccc3Oc3cc(OC(F)(F)F)ccc32)CC1 (stereo not shown) [Compound 73]	35%
CN1CCN(C2Cc3ccccc3Oc3ccc(SC(F)(F)F)cc32)CC1 (stereo not shown) [Compound 75]	86%
CN1CCN(C2Cc3ccccc3Oc3ccc([S+]([O-])C(F)(F)F)cc32)CC1 (stereo not shown) [Compound 76]	32%
CN1CCN(C2Cc3ccccc3Oc3ccc(S(=O)(=O)C(F)(F)F)cc32)CC1 (stereo not shown) [Compound 77]	37%
C=Cc1ccc2c(c1)C(N1CCN(C)CC1)Cc1ccccc1O2 (stereo not shown) [Compound 78]	53%
C#Cc1ccc2c(c1)C(N1CCN(C)CC1)Cc1ccccc1O2 (stereo not shown) [Compound 79]	35%
CN1CCN(C2Cc3ccccc3Oc3cc(Cl)c(Cl)cc32)CC1 (stereo not shown) [Compound 82]	98%
CN1CCN(C2Cc3ccccc3Oc3c(Cl)cc(Cl)cc32)CC1 (stereo not shown) [Compound 83]	41%
CN1CCN(C2Cc3ccccc3Oc3c(F)cc(Br)cc32)CC1 (stereo not shown) [Compound 88]	35%
Cc1cc(Br)cc2c1Oc1ccccc1CC2N1CCN(C)CC1 (stereo not shown) [Compound 89]	55%
CCc1ccc2c(c1)C(N1CCN(C)CC1)Cc1ccccc1S2.O=S(=O)(O)O (stereo not shown) [Compound 98]	90%
C[N+]1([O-])CCN(C2Cc3ccccc3Sc3ccc(OC(F)(F)F)cc32)CC1 (stereo not shown) [Compound 107]	82%
CN1CCN(C2Cc3ccc(F)cc3Sc3ccc(OC(F)(F)F)cc32)CC1 (stereo not shown) [Compound 126]	100%
CN1CCCN(C2Cc3ccccc3Oc3ccc(OC(F)(F)F)cc32)CC1 (stereo not shown) [Compound 186]	100%
CN1CCN(C2=Nc3ccccc3Sc3ccc(OC(F)(F)F)cc32)CC1 [Compound 194]	51%

same assay, conditions: 300 ppm; 72 hours exposure

Compound	Percent Mortality of Cotton Aphid on Cotton Plants
CCN(CC)CCOC1Cc2ccccc2Sc2ccc(OC(F)(F)F)cc21 (stereo not shown) [Compound 52]	100%

same assay, conditions: 300 ppm; 168 hours exposure

Compound	Percent Mortality of Cotton Aphid on Cotton Plants
CN1CCN(C2Cc3ccccc3Sc3c(F)cc(Cl)cc32)CC1.O=S(O)S(=O)(=O)O (stereo not shown) [Compound 96]	100%
CN1CCN(C2Cc3ccccc3Sc3c2ccc(Cl)c3Cl)CC1.O=C(O)/C=C\C(=O)O (stereo not shown) [Compound 110]	65%

same assay, conditions: 1000 ppm; 72 hours exposure

Compound	Percent Mortality of Cotton Aphid on Cotton Plants
CN1CCN(C2Cc3ccccc3Sc3c(F)cccc32)CC1 (stereo not shown) [Compound 94]	100%
CN1CCN(C2Cc3ccccc3Sc3cc(F)c(Cl)cc32)CC1 (stereo not shown) [Compound 95]	82%
CSc1ccc2c(c1)C(N1CCN(C)CC1)Cc1ccccc1S2.O=C(O)/C=C\C(=O)O (stereo not shown) [Compound 103]	90%
CN1CCN(C2Cc3cc(F)ccc3Sc3ccc(Cl)cc32)CC1 (stereo not shown) [Compound 121]	65%

same assay, conditions: 1000 ppm; 96 hours exposure

Compound	Percent Mortality of Cotton Aphid on Cotton Plants
CN1CCN(C2Cc3ccccc3Sc3ccc(C(F)(F)F)cc32)CC1 (stereo not shown) [Compound 105]	85%
CSc1ccc2c(c1)C(N1CCN(Cc3ccncc3)CC1)Cc1ccccc1S2 (stereo not shown) [Compound 173]	82%

same assay, conditions: 1000 ppm; 168 hours exposure

Compound	Percent Mortality of Cotton Aphid on Cotton Plants
CN1CCN(C2Cc3ccccc3Oc3ccc(C#C[Si](C)(C)C)cc32)CC1 (stereo not shown) [Compound 80]	83%
CN1CCN(C2Cc3ccccc3Oc3c(F)cc(Cl)cc32)CC1 (stereo not shown) [Compound 85]	92%
CN1CCN(C2Cc3ccccc3Oc3c(Cl)cc(F)cc32)CC1 (stereo not shown) [Compound 87]	97%
CN1CCN(C2Cc3ccccc3Sc3ccccc32)CC1.O=C(O)/C=C\C(=O)O (stereo not shown) [Compound 90]	74%
CN1CCN(C2Cc3ccc(F)cc3Sc3ccc(OC(F)(F)F)cc32)CC1 (stereo not shown) [Compound 108]	100%
CN1CCN(C2Cc3ccccc3Sc3ccc(OC(F)(F)C(F)F)cc32)CC1 (stereo not shown) [Compound 109]	100%
CC(C)c1ccc2c(c1)C(N1CCN(C)CC1)Cc1ccc(F)cc1S2 (stereo not shown) [Compound 127]	100%
CSc1ccc2c(c1)C(N1CCCN(C)CC1)Cc1ccccc1S2 (stereo not shown) [Compound 183]	100%
CN1CCCN(C2Cc3ccccc3Sc3ccc(OC(F)(F)F)cc32)CC1 (stereo not shown) [Compound 185]	100%
CN1CCN(C2=Nc3ccccc3Sc3ccc(Cl)cc32)CC1 [Compound 189]	55%
